Measured values taken from the NIST ThermoML archive (doi:10.1021/je200811n).

Conditions: Hot wire method

F/C=C/C(F)(F)F [trans-1,3,3,3-tetrafluoropropene]
Conditions	thermal conductivity [W/m/K]
312.25 K, 581 kPa, Gas	0.01478
312.31 K, 325 kPa, Gas	0.01497
312.4 K, 200 kPa, Gas	0.01456
312.41 K, 431 kPa, Gas	0.01481
312.43 K, 101 kPa, Gas	0.0144
312.48 K, 326 kPa, Gas	0.01471
312.57 K, 582 kPa, Gas	0.01477
312.62 K, 200 kPa, Gas	0.0149
312.73 K, 430 kPa, Gas	0.01467
312.8 K, 102 kPa, Gas	0.01504
312.83 K, 325 kPa, Gas	0.01474
312.92 K, 584 kPa, Gas	0.01483
312.98 K, 200 kPa, Gas	0.01488
313.1 K, 428 kPa, Gas	0.01481
313.2 K, 102 kPa, Gas	0.01509
313.2 K, 325 kPa, Gas	0.01472
313.27 K, 585 kPa, Gas	0.01483
313.39 K, 200 kPa, Gas	0.01487
313.49 K, 429 kPa, Gas	0.01476
313.6 K, 325 kPa, Gas	0.01477
313.64 K, 102 kPa, Gas	0.01508
313.67 K, 586 kPa, Gas	0.01487
313.81 K, 200 kPa, Gas	0.01496
313.88 K, 428 kPa, Gas	0.01479
314.02 K, 325 kPa, Gas	0.01482
314.08 K, 101 kPa, Gas	0.01511
314.25 K, 200 kPa, Gas	0.01496
314.56 K, 101 kPa, Gas	0.01518
320.95 K, 10241 kPa, Liquid	0.07419
320.95 K, 15330 kPa, Liquid	0.07758
321 K, 1074 kPa, Liquid	0.06717
321 K, 15328 kPa, Liquid	0.07747
321 K, 15398 kPa, Liquid	0.07709
321 K, 21637 kPa, Liquid	0.08122
321.01 K, 5363 kPa, Liquid	0.07064
321.01 K, 10238 kPa, Liquid	0.07408
321.06 K, 1073 kPa, Liquid	0.06692
321.06 K, 15400 kPa, Liquid	0.07715
321.06 K, 21630 kPa, Liquid	0.08106
321.08 K, 5360 kPa, Liquid	0.07051
321.23 K, 96 kPa, Gas	0.01565
321.24 K, 193 kPa, Gas	0.01579
321.26 K, 302 kPa, Gas	0.01598
321.31 K, 15324 kPa, Liquid	0.07738
321.32 K, 10235 kPa, Liquid	0.07406
321.34 K, 21627 kPa, Liquid	0.08112
321.35 K, 1071 kPa, Liquid	0.06648
321.36 K, 15404 kPa, Liquid	0.0766
321.37 K, 5451 kPa, Liquid	0.07074
321.39 K, 15326 kPa, Liquid	0.07727
321.4 K, 5358 kPa, Liquid	0.07043
321.42 K, 10233 kPa, Liquid	0.07383
321.43 K, 1070 kPa, Liquid	0.06675
321.43 K, 21621 kPa, Liquid	0.08087
321.44 K, 5449 kPa, Liquid	0.07064
321.45 K, 96 kPa, Gas	0.01549
321.45 K, 15400 kPa, Liquid	0.07716
321.46 K, 193 kPa, Gas	0.01564
321.48 K, 301 kPa, Gas	0.01576
321.5 K, 5355 kPa, Liquid	0.07013
321.69 K, 96 kPa, Gas	0.01537
321.69 K, 193 kPa, Gas	0.01553
321.69 K, 301 kPa, Gas	0.01571
321.73 K, 15326 kPa, Liquid	0.07718
321.74 K, 21616 kPa, Liquid	0.08084
321.76 K, 10233 kPa, Liquid	0.07335
321.77 K, 1068 kPa, Liquid	0.06659
321.77 K, 5449 kPa, Liquid	0.07051
321.77 K, 15389 kPa, Liquid	0.07714
321.85 K, 15325 kPa, Liquid	0.077
321.85 K, 21616 kPa, Liquid	0.08065
321.86 K, 5352 kPa, Liquid	0.07024
321.87 K, 1067 kPa, Liquid	0.06647
321.87 K, 5446 kPa, Liquid	0.07039
321.88 K, 10232 kPa, Liquid	0.07374
321.89 K, 15379 kPa, Liquid	0.07673
321.93 K, 96 kPa, Gas	0.01526
321.93 K, 301 kPa, Gas	0.0156
321.94 K, 193 kPa, Gas	0.01541
321.94 K, 862 kPa, Gas	0.01585
321.98 K, 5353 kPa, Liquid	0.07002
322.01 K, 717 kPa, Gas	0.01564
322.18 K, 301 kPa, Gas	0.01554
322.19 K, 193 kPa, Gas	0.01534
322.19 K, 21613 kPa, Liquid	0.0806
322.2 K, 15324 kPa, Liquid	0.07701
322.23 K, 861 kPa, Gas	0.01583
322.24 K, 5447 kPa, Liquid	0.07031
322.25 K, 432 kPa, Gas	0.01554
322.25 K, 1068 kPa, Liquid	0.06595
322.25 K, 10235 kPa, Liquid	0.0737
322.25 K, 15372 kPa, Liquid	0.07646
322.27 K, 889 kPa, Gas	0.01589
322.32 K, 715 kPa, Gas	0.01567
322.32 K, 21607 kPa, Liquid	0.08044
322.34 K, 302 kPa, Gas	0.01575
322.34 K, 15322 kPa, Liquid	0.0768
322.35 K, 5442 kPa, Liquid	0.07009
322.37 K, 5357 kPa, Liquid	0.07003
322.38 K, 1067 kPa, Liquid	0.06625
322.4 K, 10234 kPa, Liquid	0.07347
322.48 K, 588 kPa, Gas	0.01563
322.52 K, 5368 kPa, Liquid	0.06983
322.55 K, 859 kPa, Gas	0.01582
322.57 K, 432 kPa, Gas	0.01556
322.58 K, 886 kPa, Gas	0.01586
322.65 K, 713 kPa, Gas	0.01571
322.69 K, 301 kPa, Gas	0.01554
322.7 K, 21605 kPa, Liquid	0.08035
322.73 K, 15322 kPa, Liquid	0.07671
322.75 K, 5443 kPa, Liquid	0.07003
322.79 K, 1065 kPa, Liquid	0.06618
322.8 K, 10233 kPa, Liquid	0.07327
322.81 K, 193 kPa, Gas	0.01577

Conditions	thermal conductivity [W/m/K]
313.15 K, Liquid	0.06932
